# Source: the supplement of paper PMC10307832
# Tests used:
# Assay in all cases: relative viability (nuclei count vs DMSO), 5 days (fraction); higher = more cells survive
# [1] = compound: COc1cc(-c2nn([C@H]3CC[C@H](N4CCN(C(C)=O)CC4)CC3)c3ncnc(N)c23)ccc1NC(=O)c1cc2ccccc2n1C + CC(C)C[C@H](NC(=O)[C@H](Cc1ccccc1)NC(=O)c1cnccn1)B(O)O [Bortezomib] (partner 0.002 µM)
# Summary of the method: (§1)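 Nuclei were stained with Hoechst during a one-step fixation (final 0.05% Triton X-100, 1% formaldehyde, 1 ug/ml Hoechst) carried out 5 days after dosing, then counted on 4× images. The cells, lung cancer lines in 1536-well plates, had been dosed by pin tool the day after seeding with one drug alone or a fixed anchor-drug dose plus five library-drug doses (not always all listed) in √10 steps. Relative viability is the nuclei count in treated wells divided by that in vehicle wells, and each value is the median of duplicate plates.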
# [2] = compound: COc1cc(-c2nn([C@H]3CC[C@H](N4CCN(C(C)=O)CC4)CC3)c3ncnc(N)c23)ccc1NC(=O)c1cc2ccccc2n1C + C[C@]1(O)C[C@@H](c2nc(-c3ccc4ccc(-c5ccccc5)nc4c3)c3c(N)nccn32)C1 [Linsitinib] (partner 1 µM)
# Summary of the method: as §1
# [3] = compound: CO[C@@H]1[C@H](N(C)C(=O)c2ccccc2)C[C@H]2O[C@]1(C)n1c3ccccc3c3c4c(c5c6ccccc6n2c5c31)C(=O)NC4 [Midostaurin] + C[C@@H](Oc1cc(-c2cnn(C3CCNCC3)c2)cnc1N)c1c(Cl)ccc(F)c1Cl [Crizotinib] (partner 1 µM)
# Summary of the method: as §1
# [4] = compound: CO[C@@H]1[C@H](N(C)C(=O)c2ccccc2)C[C@H]2O[C@]1(C)n1c3ccccc3c3c4c(c5c6ccccc6n2c5c31)C(=O)NC4 [Midostaurin] + Cc1cc(Nc2cc(N3CCN(C)CC3)nc(Sc3ccc(NC(=O)C4CC4)cc3)n2)n[nH]1 [Tozasertib] (partner 0.1 µM)
# Summary of the method: as §1
# [5] = compound: COc1cc(-c2nn([C@H]3CC[C@H](N4CCN(C(C)=O)CC4)CC3)c3ncnc(N)c23)ccc1NC(=O)c1cc2ccccc2n1C + COc1cc2c(Oc3ccc(NC(=O)C4(C(=O)Nc5ccc(F)cc5)CC4)cc3F)ccnc2cc1OCCCN1CCOCC1 [Foretinib] (partner 0.25 µM)
# Summary of the method: as §1
Cell Line,relative viability ([1]; first compound 0.0128 µM),relative viability ([1]; first compound 0.04048 µM),relative viability ([1]; first compound 0.128 µM),relative viability ([1]; first compound 1.28 µM),relative viability ([2]; first compound 0.0128 µM),relative viability ([2]; first compound 0.04048 µM),relative viability ([2]; first compound 0.128 µM),relative viability ([2]; first compound 1.28 µM),relative viability ([3]; first compound 0.01 µM),relative viability ([3]; first compound 0.03162 µM),relative viability ([3]; first compound 0.1 µM),relative viability ([3]; first compound 0.3162 µM),relative viability ([4]; first compound 0.01 µM),relative viability ([4]; first compound 0.03162 µM),relative viability ([4]; first compound 0.1 µM),relative viability ([4]; first compound 0.3162 µM),relative viability ([5]; first compound 0.0128 µM),relative viability ([5]; first compound 0.04048 µM),relative viability ([5]; first compound 0.128 µM),relative viability ([5]; first compound 1.28 µM)
201T,1.14,1.16,1.06,1.03,0.979,1.05,0.927,0.665,1.07,1.01,1.01,1.05,0.974,0.913,0.915,0.891,1.06,1.19,0.859,0.594
A549,–,–,–,–,0.552,0.666,0.619,0.465,0.796,0.665,0.589,0.26,–,–,–,–,0.927,0.991,0.969,0.935
A-427,1.04,0.782,0.935,0.96,1.16,1.08,1.07,0.963,0.949,0.794,0.735,0.707,0.232,0.215,0.193,0.172,1.03,–,0.988,0.884
ABC-1,0.212,0.32,0.26,0.3,0.709,0.887,0.749,0.697,0.981,1.28,1.12,0.582,0.146,0.191,0.174,0.201,0.967,0.953,1.05,0.881
BEN,0.667,0.765,0.824,0.53,0.815,0.926,0.851,0.644,1.12,0.889,1.17,0.935,0.501,0.551,0.401,0.459,0.502,0.642,0.602,0.45
CAL-12T,1.11,0.943,0.938,0.972,0.851,0.533,0.801,0.74,0.616,0.572,0.646,0.251,0.345,0.27,0.266,0.215,1.13,1.06,1.31,1.12
COR-L23,0.991,1.4,0.873,0.908,0.866,0.96,0.992,0.924,0.653,0.633,0.541,0.464,0.204,0.198,0.166,0.152,1.08,1.14,0.894,0.981
COR-L 105,0.73,0.854,0.657,0.386,1.04,0.77,0.898,0.549,0.835,0.738,0.692,0.698,0.404,0.356,0.341,0.313,1.04,1.34,0.994,0.598
Calu-6,1.04,1.05,0.869,0.754,0.901,0.657,0.858,0.785,0.685,0.768,0.859,0.617,–,–,–,–,0.905,0.813,0.823,0.659
ChaGo-K-1,0.922,1.13,0.865,0.973,–,–,–,–,1.09,1.15,1.05,1.03,0.312,0.214,0.229,0.219,0.994,0.897,0.892,0.742
EBC-1,0.575,0.554,0.521,0.481,0.77,0.959,0.898,0.896,0.164,0.231,0.197,0.2,–,–,–,–,0.104,0.0846,0.126,0.112
EKVX,1.07,1.1,0.917,0.401,1.2,1.12,0.918,0.499,1.07,0.988,0.868,0.929,0.369,0.414,0.366,0.343,0.881,0.755,0.744,0.575
EMC-BAC-2,1.03,1.12,1.04,1.12,0.869,0.806,0.815,0.521,0.704,0.754,0.647,0.696,0.267,0.296,0.243,0.273,1.06,1.05,0.968,0.617
EPLC-272H,0.993,0.933,0.952,0.902,1.45,1.21,0.878,1.04,0.875,0.998,1.07,0.926,0.261,–,0.186,0.311,0.78,–,0.705,0.37
H3255,0.92,0.765,0.721,0.779,1.04,0.935,0.887,0.663,0.829,0.718,0.937,0.892,0.624,0.635,0.61,0.695,0.761,0.813,0.849,0.557
HARA,1.12,1.16,1.1,0.803,1,0.873,0.891,0.62,0.902,0.977,0.86,0.958,0.142,0.0861,0.0946,0.0968,1.07,0.846,0.687,0.332
